The NIST ThermoML archive (doi:10.1021/je050353j)
Numbers after ± are expanded uncertainties.

Columns and labels:
[1] = refractive index (Na D-line) (dimensionless); settings: 298.15 K; 100 kPa; Liquid; Standard Abbe refractometry
[2] = relative permittivity at zero frequency (dimensionless); xn = mol fraction of the nth substance listed; settings: 298.15 K, Liquid, Parallel plate capacitor

| SMILES | refractive index [1] | relative permittivity at zero frequency ([2]; 100 kPa, x1 = 0.2) | relative permittivity at zero frequency ([2]; 100 kPa, x1 = 0.4) | relative permittivity at zero frequency ([2]; 100 kPa, x1 = 0.6) | relative permittivity at zero frequency ([2]; 100 kPa, x1 = 0.8) | relative permittivity at zero frequency ([2]; 50000 kPa, x1 = 0.2) | relative permittivity at zero frequency ([2]; 50000 kPa, x1 = 0.4) | relative permittivity at zero frequency ([2]; 50000 kPa, x1 = 0.6) | relative permittivity at zero frequency ([2]; 50000 kPa, x1 = 0.8) | relative permittivity at zero frequency ([2]; 100000 kPa, x1 = 0.2) | relative permittivity at zero frequency ([2]; 100000 kPa, x1 = 0.4) | relative permittivity at zero frequency ([2]; 100000 kPa, x1 = 0.6) | relative permittivity at zero frequency ([2]; 100000 kPa, x1 = 0.8) | relative permittivity at zero frequency ([2]; 150000 kPa, x1 = 0.2) | relative permittivity at zero frequency ([2]; 150000 kPa, x1 = 0.4) | relative permittivity at zero frequency ([2]; 150000 kPa, x1 = 0.6) | relative permittivity at zero frequency ([2]; 150000 kPa, x1 = 0.8) | relative permittivity at zero frequency ([2]; 200000 kPa, x1 = 0.2) | relative permittivity at zero frequency ([2]; 200000 kPa, x1 = 0.4) | relative permittivity at zero frequency ([2]; 200000 kPa, x1 = 0.6) | further results |
| --- | --- | --- | --- | --- | --- | --- | --- | --- | --- | --- | --- | --- | --- | --- | --- | --- | --- | --- | --- | --- | --- |
| OCCO [1,2-ethanediol] + O |  | 65.26 ± 0.14 | 56.38 ± 0.12 | 49.73 ± 0.11 | 44.76 ± 0.1 | 66.72 ± 0.14 | 57.74 ± 0.12 | 50.99 ± 0.11 | 45.95 ± 0.1 | 68.04 ± 0.14 | 58.96 ± 0.13 | 52.14 ± 0.11 | 47.04 ± 0.1 | 69.3 ± 0.15 | 60.14 ± 0.13 | 53.21 ± 0.11 | 48.05 ± 0.1 | 70.47 ± 0.15 | 61.19 ± 0.13 | 54.2 ± 0.12 | relative permittivity at zero frequency ([2]; 200000 kPa, x1 = 0.8): 49 ± 0.1; relative permittivity at zero frequency ([2]; 250000 kPa, x1 = 0.2): 71.6 ± 0.15; relative permittivity at zero frequency ([2]; 250000 kPa, x1 = 0.4): 62.23 ± 0.13; relative permittivity at zero frequency ([2]; 250000 kPa, x1 = 0.6): 55.15 ± 0.12; relative permittivity at zero frequency ([2]; 250000 kPa, x1 = 0.8): 49.89 ± 0.11; relative permittivity at zero frequency ([2]; 300000 kPa, x1 = 0.2): 72.68 ± 0.15; relative permittivity at zero frequency ([2]; 300000 kPa, x1 = 0.4): 63.22 ± 0.13; relative permittivity at zero frequency ([2]; 300000 kPa, x1 = 0.6): 56.06 ± 0.12; relative permittivity at zero frequency ([2]; 300000 kPa, x1 = 0.8): 50.72 ± 0.11 |
| O [water] + OCCO |  |  |  |  |  |  |  |  |  |  |  |  |  |  |  |  |  |  |  |  | relative permittivity at zero frequency ([2]; 100 kPa, x2 = 0): 78.39 ± 0.17; relative permittivity at zero frequency ([2]; 50000 kPa, x2 = 0): 80.18 ± 0.17; relative permittivity at zero frequency ([2]; 100000 kPa, x2 = 0): 81.88 ± 0.17; relative permittivity at zero frequency ([2]; 150000 kPa, x2 = 0): 83.47 ± 0.18; relative permittivity at zero frequency ([2]; 200000 kPa, x2 = 0): 85.01 ± 0.18; relative permittivity at zero frequency ([2]; 250000 kPa, x2 = 0): 86.48 ± 0.18; relative permittivity at zero frequency ([2]; 300000 kPa, x2 = 0): 87.94 ± 0.19 |

Now from value to compound, other results behind:

| refractive index [1] | relative permittivity at zero frequency ([2]; 100 kPa, x1 = 0.2) | relative permittivity at zero frequency ([2]; 100 kPa, x1 = 0.4) | relative permittivity at zero frequency ([2]; 100 kPa, x1 = 0.6) | relative permittivity at zero frequency ([2]; 100 kPa, x1 = 0.8) | relative permittivity at zero frequency ([2]; 50000 kPa, x1 = 0.2) | relative permittivity at zero frequency ([2]; 50000 kPa, x1 = 0.4) | relative permittivity at zero frequency ([2]; 50000 kPa, x1 = 0.6) | relative permittivity at zero frequency ([2]; 50000 kPa, x1 = 0.8) | relative permittivity at zero frequency ([2]; 100000 kPa, x1 = 0.2) | relative permittivity at zero frequency ([2]; 100000 kPa, x1 = 0.4) | relative permittivity at zero frequency ([2]; 100000 kPa, x1 = 0.6) | relative permittivity at zero frequency ([2]; 100000 kPa, x1 = 0.8) | relative permittivity at zero frequency ([2]; 150000 kPa, x1 = 0.2) | relative permittivity at zero frequency ([2]; 150000 kPa, x1 = 0.4) | relative permittivity at zero frequency ([2]; 150000 kPa, x1 = 0.6) | relative permittivity at zero frequency ([2]; 150000 kPa, x1 = 0.8) | relative permittivity at zero frequency ([2]; 200000 kPa, x1 = 0.2) | relative permittivity at zero frequency ([2]; 200000 kPa, x1 = 0.4) | relative permittivity at zero frequency ([2]; 200000 kPa, x1 = 0.6) | SMILES | further results |
| --- | --- | --- | --- | --- | --- | --- | --- | --- | --- | --- | --- | --- | --- | --- | --- | --- | --- | --- | --- | --- | --- |
| 1.4722 ± 0.0008 |  |  |  |  |  |  |  |  |  |  |  |  |  |  |  |  |  |  |  | OCC(O)CO [glycerol] |  |
|  | 63.79 ± 0.14 | 55.26 ± 0.12 | 49.52 ± 0.11 | 45.48 ± 0.1 | 65.05 ± 0.14 | 56.37 ± 0.12 | 50.55 ± 0.11 | 46.43 ± 0.1 | 66.28 ± 0.14 | 57.44 ± 0.12 | 51.5 ± 0.11 | 47.33 ± 0.1 | 67.44 ± 0.14 | 58.46 ± 0.12 | 52.42 ± 0.11 | 48.18 ± 0.1 | 68.55 ± 0.15 | 59.43 ± 0.13 | 53.29 ± 0.11 | OCC(O)CO [glycerol] + O | relative permittivity at zero frequency ([2]; 200000 kPa, x1 = 0.8): 48.99 ± 0.1; relative permittivity at zero frequency ([2]; 250000 kPa, x1 = 0.2): 69.62 ± 0.15; relative permittivity at zero frequency ([2]; 250000 kPa, x1 = 0.4): 60.37 ± 0.13; relative permittivity at zero frequency ([2]; 250000 kPa, x1 = 0.6): 54.14 ± 0.11; relative permittivity at zero frequency ([2]; 250000 kPa, x1 = 0.8): 49.77 ± 0.11; relative permittivity at zero frequency ([2]; 300000 kPa, x1 = 0.2): 70.65 ± 0.15; relative permittivity at zero frequency ([2]; 300000 kPa, x1 = 0.4): 61.28 ± 0.13; relative permittivity at zero frequency ([2]; 300000 kPa, x1 = 0.6): 54.95 ± 0.12; relative permittivity at zero frequency ([2]; 300000 kPa, x1 = 0.8): 50.53 ± 0.11 |
| 1.4304 ± 0.0008 |  |  |  |  |  |  |  |  |  |  |  |  |  |  |  |  |  |  |  | OCCO [1,2-ethanediol] |  |
